Where a name gives a salt, the structure may show the parent alone.
Columns and labels:
[1] = biological target: T1, acetylcholinesterase (Electrophorus electricus, UniProt O42275); assay: biochemical
Text: (§1) In both test systems, the enzyme (acetylcholinesterase, Sigma-Aldrich Chemie GmbH, Steinheim, Germany) hydrolyzes the substrate acetylthiocholine (acetylthiocholiniodid, Sigma-Aldrich Chemie GmbH, Steinheim, Germany) to produce thiocholine. This reacts with Ellman's reagent (5,5'-dithiobis-(2-nitrobenzoic acid), Sigma-Aldrich Chemie GmbH, Steinheim, Germany) resulting in 5-thio-2-nitrobenzoate and the yellow colored 2-nitrobenzoate-5-mercaptothiocholine. This latter was visually detected in the TLC test.
The self absorbance of all ingredients of the assay was corrected by subtracting the absorbance at time zero from the subsequent absorbance values. […] For all three substances the concentration dependence of their AChE inhibitory activity was determined. Percentage of the enzyme inhibition was calculated by comparing the rates for the sample to the blank (containing 1% DMSO) and analyzed with Student's t-test.

[2] = tested on: extracellular concentration of ACh in the nucleus accumbens; assay: in vivo extracellular ACh concentration, push-pull technique, i.c.v. injection; design: species or system Sprague-Dawley rats; settings: 2 µmol i.c.v.; for extracellular concentration of ACh (relative value, means ± SEM): mean before drug = 1.0
Text: Surgery and push-pull technique: Sprague-Dawley rats (250-350 g) were anaesthetized with urethane 1,2 g/kg, i.p. The head was fixed in a stereotaxic frame and a push-pull cannula (outer tubing: o.d. 0.75 mm, i.d. 0.41 mm; inner tubing: o.d. 0.26 mm, i.d. 0.13 mm) was mounted on a microdrive. This was stereotaxically inserted through a hole in the skull into the nucleus accumbens (coordinates, mm from bregma: AP, +1.2; L, +2.5; V, -7.8; Paxinos & Watson, 1998). A second hole was drilled into the skull for the i.c.v. application of drugs (coordinates, mm from bregma: AP, -2,8; L, +1,5) The nucleus accumbens was superfused at 20µL/min with artificial cerebrospinal fluid (aCSF), pH 7.2. The CSF consisted of: NaCl,140; KCI, 3; CaCl2, 1.2; MgCl2 1; Na2HPO4, 1; NaH2PO4, 0.3; glucose 3.0 (mmol I^-1), neostigmine 1.0 (µmol/l^-1). After 1 h of the cannula insertion the samples were collected into tubes kept at -20° C in time periods of 10 min and then stored at -80° C until acetylcholine (Ach) was determined.
Using a motorized microsyringe connected to a stereotaxic microdrive, the tip was introduced with an angle of 60° through the drug application-hole into the ipsilateral ventricle (coordinates mm from bregma: AP, -0,9; L, +1,5; V, -3,8) via a cannula (o.d., 0,65; i.d., 0,38). The drug solutions were injected at 2µL/min. The control rats were injected with the vehicle (DMSO: EtOH 1:1).
Histology: At the end of the experiment the rat was killed with an overdose of urethane, the brain was removed and stored in buffered formaldehyde solution (7%). Serial coronal sections were cut at 50 µm intervals. Localisation of the push-pull cannula and i.c.v. microinjection was verified. Experiments with unsatisfactory localisation were discarded.
Determination of acetylcholine: (Ach): ACh content in the samples was determined by HPLC with a cation-exchanging analytical column and a post-column reactor followed by electrochemical detection (Damsma et al, 1997; Prast et al; 1998). The system consisted of a HPLC-pump (JASCO PU-1580, Jasco Corporation, Tokyo, Japan), a pulse dampener and an autosampler (AS-4000, Hitachi Ltd., Tokyo, Japan) with a 100-µL sample loop. […] The peroxide was electrochemically detected by a UniJet platin electrode (3mm) at +500 mV with an amperometric detector (BAS LC-4, Bioanalytical Systems, West Lafayette, IN, USA). […] ACh was quantified with external standards that were injected at the beginning and the end of the analysis.
Statistical significance of drug effects on the extracellular ACh concentration was calculated by Friedman's analysis of variance, followed by Wilcoxon's signed rank test for paired data (a p<0.08, * p<0.05, ** p<0,001) using the mean concentration rate before the administration of drugs as controls. […]

[3] = biological target: T1, acetylcholinesterase; assay: bioautographic TLC test for AChE inhibitory activity (Ellman's method); type: biochemical; design: purchased Sigma-Aldrich Chemie GmbH, Steinheim, Germany; settings: spots of methanolic extract of S. carniolica rhizomes, Rf 0.6 (SCT) and 0.4 (SCN); false positives excluded
Description: The AChE inhibitory activity of the methanolic crude extract was qualitatively determined in a TLC assay using Ellman's method (Ellman, et al, 1961). Additionally a test to exclude false positive results was conducted described by Rhee et al, 2003. The used silica gel TLC plates 60F254 (0.2 mm thickness) were purchased from Merck (Darmstadt, Germany). […] Enzyme inhibitory activities were detected by spraying the substrate, dye and enzyme described by Rhee and coauthors (Rhee et al, 2001).
as §1

[4] = tested on: mice; assay: object recognition task; type: in vivo
Description: (§2) […] female, 3-month mice, weighing 20 - 27 g, were used in the present study. The animals were housed in groups of six to ten in cages (40 (L) x 25 (W) x 15 (H) cm) placed in a room at a constant temperature (22±1 °C), 12-light/ 12-dark cycle (07:00-19:00 h), with food and water ad libitum. Experiments were conducted between 09:00 and 16:00h.
(§3) Mice were anaesthetized with Pentobarbital sodium (60 mg/kg, i.p.) and placed in a stereotaxic frame. A guide cannula (gauge 25, o.d. 0.52 mm, i.d, 0.26 mm and 7 mm long) was stereotaxically implanted through a hole on the skull into the brain area 0.5 mm higher than the third cerebral ventricle (-0.1 mm posterior, 0.8 mm lateral to bregma, -2.2 mm ventral to the dura) (Franklin and Paxinos, 1997). Guide cannula was secured to the skull using two small screws and dental cement. The microinjector (Hamilton gauge 32, o.d. 0.24 mm and i.d. 0.11 mm, 7.5 mm long) protruded 0.5 mm from the tip of the guide cannula to reach the cerebral ventricle. Mice recovered for 5 days before any experimentation was done.
Scopolamine hydrobromide (Sigma, St. Louis, MO, U.S.A.) was dissolved in saline. […]
Exploration was defined as follows: directing the nose toward the object at a distance of less than 0.5 cm and/or touching the object with the nose. […] The times spent by mice in exploring each object during T1 and T2 were recorded manually by using a stopwatch. […]

[5] = tested on: mice; assay: T-maze continuous alternation; type: in vivo
Description: as §2, §3
Scopolamine hydrobromide (Sigma, St. Louis, MO, U.S.A.) was dissolved in saline. SCT (Sigma-Aldrich Chemie GmbH, Steinheim, Germany) was dissolved in vehicle solution (DMSO:sterile water, 3:7). The animals were randomly divided into experimental groups and administered a cerebral ventricle injection of saline, scopolamine, SCT or scopolamine and SCT in a volume of 1 or 2 µl during 1 min. The injector was left in place an extra 1 min for drug diffusion after injection. These substances and vehicle were injected 15 min prior to the test.
Animals were randomly divided into […] experimental groups (6 mice per group) as follows: vehicle, scopolamine hybrobromide 20 µg (50 nmol) in 1µl ICV, SCT 2 µg (10 nmol) in 2µl ICV and scopolamine hybrobromide 20 µg plus SCT 2 µg ICV. All substances were injected 15 min before the test (T-maze and open field) or before the training trial T1 (object recognition test) through the 7.5 mm long injector connected with i.d. 0.28 mm polyethylene tubing to 5 µl Hamilton syringe. […]

[6] = tested on: mice; assay: open field locomotor behaviour; type: in vivo; settings: 2 µg ICV, 30 min
Description: as §2
as §3, with “done. […]” for “done.”
The open field consisted of a transparent plastic box with white floor (41 x 41 x 41 cm) equipped with an automated activity monitoring system (True Scan, Coulbourn Instruments, Allentown, USA). […] The time spent in box and the overall distance travelled by the mice were monitored for 30 min. […]

T1 sequence (O42275 24-633): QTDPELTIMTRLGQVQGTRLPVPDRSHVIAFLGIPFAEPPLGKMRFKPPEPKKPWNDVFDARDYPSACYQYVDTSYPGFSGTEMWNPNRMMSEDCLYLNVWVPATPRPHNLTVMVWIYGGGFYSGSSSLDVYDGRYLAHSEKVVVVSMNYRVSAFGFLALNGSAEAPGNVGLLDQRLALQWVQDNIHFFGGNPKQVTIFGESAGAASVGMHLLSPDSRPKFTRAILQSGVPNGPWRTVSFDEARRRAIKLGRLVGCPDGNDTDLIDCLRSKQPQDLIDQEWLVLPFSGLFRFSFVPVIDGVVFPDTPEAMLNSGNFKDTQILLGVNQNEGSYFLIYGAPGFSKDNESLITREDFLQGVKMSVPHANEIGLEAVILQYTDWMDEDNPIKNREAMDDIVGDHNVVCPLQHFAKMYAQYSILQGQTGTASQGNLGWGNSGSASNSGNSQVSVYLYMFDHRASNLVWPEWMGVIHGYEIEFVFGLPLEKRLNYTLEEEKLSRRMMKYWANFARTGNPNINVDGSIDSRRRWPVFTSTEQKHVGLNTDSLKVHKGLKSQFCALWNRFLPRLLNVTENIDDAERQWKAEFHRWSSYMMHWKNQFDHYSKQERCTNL

Row | SMILES | inhibition of AChE, statistical significance ([1]; 1000, 500 and 250 µM) | inhibition at 1000 µM ([1]; read-out: AChE inhibitory activity) [%] | time until inhibitory activities reach their maximum extent ([1]; three highest concentrations) [min] | change of inhibitory activity towards endpoint of measurement at 90 min ([1]; three highest concentrations, after maximum in first 15 min) | ACh concentration after decline, of basal value ([2]; following the initial peak) | initial peak concentration of ACh, of basal value ([2]; rat nucleus accumbens) | extracellular concentration of ACh (relative value, means ± SEM) ([2]; rat nucleus accumbens) | AChE inhibitory activity of fluorescent TLC spot [3] | change of inhibitory activity up to 90 min ([1]; higher concentrations (250, 500, 1000 µM)) | duration of inhibitory activity ([1]; lower concentrations (62.5, 125 µM)) | time until level of inhibitory activity is reached ([1]; lower concentrations (62.5, 125 µM), after adding enzyme to substrate) [min] | discrimination index, effect on scopolamine-induced impairment of object recognition ([4]; SCT 2 µg ICV plus scopolamine 20 µg ICV, 15 min before T1, mice) | alternation rate ([5]; 2 µg ICV alone) [%] | effect on scopolamine-induced decrease in alternation rate ([5]; SCT 2 µg ICV plus scopolamine 20 µg ICV) | move distance, reduction compared to vehicle-treated controls [6] | move time in the open field ([6]; vs vehicle-treated controls) | effect on learning in object recognition (discrimination novel vs familiar object in T2) ([4]; 20 µg ICV, mice) | effect on alternation rate ([5]; 20 µg ICV)
1 | COc1cc2ccc(=O)oc2cc1O[C@@H]1O[C@H](CO)[C@@H](O)[C@H](O)[C@H]1O [SCN, scopolin] | significant | 30.1 | ≤ 15 | slight decrease | about 200% | about 400% | 3.18 ± 0.78 | positive |  |  |  |  |  |  |  |  |  | 
2 | COc1cc2ccc(=O)oc2cc1O [SCT, scopoletin] |  |  |  |  |  |  | 1,74 ± 0,24 | positive | slight, almost insignificant increase | at least 90 min | ≤ 15 | significantly increased | 63 ± 5 | abolished | about 20% | only slightly decreased |  | 
3 | CN1[C@@H]2C[C@@H](OC(=O)[C@H](CO)c3ccccc3)C[C@H]1[C@@H]1O[C@@H]12 [Scopolamine, Scopolamine hydrobromide, reference compound] |  |  |  |  |  |  |  |  |  |  |  |  |  |  |  |  | drastic impairment of learning | pronounced decrease
